Laboratory results: patent US12016312B2, “Animal models, screening methods, and treatment methods for intraocular diseases or disorders” (ZHUHAI QIWEI BIO-TECHNOLOGY LTD., priority 2018, dated 2024)
Entries after “also recorded” stand apart in the source; their conditions may differ.

Legend:
Bacillus megaterium [1] = assay: Bacillus megaterium subretinal inoculation model, drusenoid pathology in monkey retinal tissues; assay type: in vivo, Macaca fascicularis; details: intravitreous, 0.5 mg, one injection on Day 2 post bacterial inoculation; macaque
Description: The macaques were sedated by intramuscular injection of a mixture of tiletamine hydrochloride (2.5 mg/kg) and xolazepam hydrochloride (2.5 mg/kg). After instilling topical anesthesia (0.5% proparacaine hydrochloride), the eyes were immediately visualized in vivo using a light microscope. The pupils were then dilated with 0.5% tropicamide and 0.5% phenylephrine to obtain the fundus photographs. […] Under microscopic monitoring, 20 μl of PBS (with or without bacteria) was injected into the subretinal space between photo receptors and RPE (retinal pigment epithelium), using a NanoFil Syringe Nanofil-100 for Microinjection (World Precision Instruments, USA). All procedures were done using sterile instruments. The macaque was euthanized 47 days post inoculation and the eyeball was enucleated for histological analyses. The eyeballs were fixed in 4% paraformaldehyde for 48 h and then embedded in paraffin. Sections were cut on a microtome at 6 μm and stained with H&E.
We examined whether subretinal inoculation of AH and VH cultures, as well as the cultured single species of B. megaterium led to AMD like pathology in macaque. About 20 CFU of bacteria (in 20 μl PBS) from AH, VH, and B. megaterium cultures were injected subretinally and PBS was used as a control (illustrated in FIG. 6). […]

Bacillus megaterium [2] = assay: Antibiotic sensitivity screening test in petri dishes (MIC method); assay type: cell-based; details: 10^-1 to 10^-5 mg/mL
Description: The bacterial culture medium (HuanKai Microbial, Guangzhou, China) containing peptone 5 g, beef extract 3 g, NaCl 5 g, agar 15 g, and MnSO4 5 mg in 1 L ddH2O (pH=7.2) was prepared in conical flask (Drtech, Guangzhou, China) and was sterilized in the autoclave (HIRAYAMA, HEV-50, Japan) at 121° C. for 30 min. Bacillus megaterium (total 1*10^7 per culture) was cultured in the incubator (HettCube 200, Germany) at 37° C. for 24 h.
To test whether antibiotics can control the growth of Bacillus megaterium in vitro and in vivo, we first carried out an antibiotic sensitivity screening test in petri dishes which were made in example 1. The sensitivity of Bacillus megaterium to several major antimicrobial agents including ampicillin, vancomycin, neomycin, metronidazole and tetracycline were examined using the minimum inhibitory concentration (MIC) method. Ampicillin, vancomycin, neomycin, metronidazole, and tetracycline (purchased from Sigma, USA) at various concentrations (10^−1, 10^−2, 10^−3, 10^−4, 10^−5 mg/mL) were added into cooled medium.
The bacterial culture medium (HuanKai Microbial, Guangzhou, China) containing peptone 5 g, beef extract 3 g, NaCl 5 g, agar 15 g, and MnSO4 5 mg in 1 L ddH2O (pH=7.2) was prepared in conical flask (Drtech, Guangzhou, China) and was sterilized in the autoclave (HIRAYAMA, HEV-50, Japan) at 121° C. for 30 min. […]

Molecule: CN[C@H](CC(C)C)C(=O)N[C@H]1C(=O)N[C@@H](CC(N)=O)C(=O)N[C@H]2C(=O)N[C@H]3C(=O)N[C@H](C(=O)N[C@H](C(=O)O)c4cc(O)cc(O)c4-c4cc3ccc4O)[C@H](O)c3ccc(c(Cl)c3)Oc3cc2cc(c3O[C@@H]2O[C@H](CO)[C@@H](O)[C@H](O)[C@H]2O[C@H]2C[C@](C)(N)[C@H](O)[C@H](C)O2)Oc2ccc(cc2Cl)[C@H]1O [vancomycin]
- size of drusenoid lesion in retinal tissue (Bacillus megaterium [1]): reduce drusenoid lesion; also recorded: reduction in the size of drusenoid lesion

Molecule: Cc1ncc([N+](=O)[O-])n1CCO [metronidazole]
- fold less effective in controlling the growth of Bacillus megaterium (relative to neomycin) (Bacillus megaterium [2]): 10000 fold

Molecule: neomycin
- sensitivity of Bacillus megaterium to antimicrobial agents (control of growth in vitro) (Bacillus megaterium [2]; 1*10^7 bacteria per culture, 37° C., 24 h): most sensitive; also recorded: best in vitro activity
